Patent EP1283044A2, “Injectable ready-to-use solutions containing an antitumor anthracycline glycoside” (Pharmacia Italia S.p.A., priority 1986, dated 1988)
Structures can show the parent of a compound that is named as a salt. Each block holds one compound with its values, some of them ahead of it.

Legend:
[1] = pH-stability profile at 55°C of epirubicin.HCl 2 mg/ml solutions in Water for Injection, 0.9% saline or 5% dextrose: HPLC assay, pH, Kobs; format: physicochemical
Protocol: Each solution was filtered through a 0.22 µm microporous membrane under nitrogen pressure. 5.0 ml of each solution were stored at 55°C in glass vials of glass type I, 8ml top capacity vial, Teflon (Trade Mark)-faced chlorobutyl rubber bung, aluminium seal.
The doxorubicin.HCl assays are the mean of three independent determinations performed by the US Pharmacopoeia (USP high performance liquid chromatography (HPLC) method (USP XXI)).
Solutions of epirubicin were prepared in the same fashion as the corresponding doxorubicin solutions hereinbefore. They were then tested for stability in the same way. The results are presented in Tables 32 to 61 below and illustrated in Figures 4 to 6.

[2] = Shelf-life (t90%) forecast, Arrhenius approach, doxorubicin.HCl 2 mg/ml sterile water solution pH 3.0; format: physicochemical; settings: for K x 10^3: 2 mg/ml sterile water solution pH 3.0, calculated from Arrhenius equation; for t90%: 2 mg/ml sterile water solution pH 3.0, calculated shelf-life; for Kobs x 10^3: 2 mg/ml sterile water solution pH 3.0, observed
Protocol: (§1) The solution was filtered through a 0.22 µm microporous membrane under nitrogen pressure. 5.0 ml aliquots were stored at: • (a) 55°C for 21 days, • (b) 45°C and 35°C for 28 days, and • (c) 27°C for 90 days. in glass vials of glass type I, 8ml top capacity vial, Teflon-faced chlorobutyl rubber bung, aluminium seal. At predetermined times the vials were analysed for doxorubicin.HCl assay and pH.
(§2) The Arrhenius equation for the degradation process was calculated from the Kobs obtained from the different temperatures taken in account for the testing (Table 8). Applying the equation, the rate constants for the pseudo-first order reactions at 4°C, 8°C, 15°C and 27°C were calculated, together with the expected shelf-life (t90%)at these temperatures.

[3] = Long term stability of doxorubicin.HCl 2 mg/ml solution in 0.9% sodium chloride at pH 3.7; settings: batch TF/23256, 0.9% sodium chloride
[4] = Shelf-life (t90%) forecast, Arrhenius approach, doxorubicin.HCl 2 mg/ml pH 3.0 in 0.9% sodium chloride; format: physicochemical; settings: 2 mg/ml pH 3.0 solution in 0.9% NaCl; for K x 10^3: calculated from Arrhenius equation; for t90%: calculated shelf-life; for Kobs x 10^3: observed
Protocol: as §1, with “(a) 60°C for 4 days, • (b)” for “(a)”, “55°C for 11 days, • (c) 45°C” for “55°C”, “days, and” for “days,”, “(d)” for “(b) 45°C and”, “days” for “days, and • (c) 27°C for 90 days.”
as §2, with “28).” for “8).”, “(t90%) at” for “(t90%)at”

[5] = Shelf-life (t90%) forecast, Arrhenius approach, doxorubicin.HCl 2 mg/ml pH 3.0 in 5% dextrose; format: physicochemical; settings: 2 mg/ml pH 3.0 solution in 5% dextrose; for t90%: calculated shelf-life; for Kobs x 10^3: observed
Protocol: The solution was filtered through a 0.22 µm microporous membrane under nitrogen pressure. 5.0 ml aliquots were stored at: • (a) 60°C for 8 days, • (b) 55°C for 28 days, • (c) 45°C for 28 days, and • (d) 35°C for 28 days in glass vials of glass type I, 8ml top capacity vial, Teflon-faced chlorobutyl rubber bung, aluminium seal.
as §2, with “30).” for “8).”, “(t90%) at” for “(t90%)at”

- Kobs x 10^3 ([1]; 2 mg/ml in 0.9% Sodium Chloride Injection, Acetate (I = 0.05) pH 4.0, 55°C): 124.8 1/days
- Kobs x 10^3 ([1]; 2 mg/ml in 0.9% Sodium Chloride Injection, Acetate (I= 0.05) pH 5.0, 55°C): 318.1 1/days
- Kobs x 10^3 ([1]; 2 mg/ml in 0.9% Sodium Chloride Injection, Formate (I = 0.05) pH 3.5, 55°C): 124.5 1/days
- Kobs x 10^3 ([1]; 2 mg/ml in 0.9% Sodium Chloride Injection, Glycine-HCl (I = 0.05) pH 2.0, 55°C): 168.9 1/days
- Kobs x 10^3 ([1]; 2 mg/ml in 0.9% Sodium Chloride Injection, Glycine-HCl (I = 0.05) pH 2.5, 55°C): 97.3 1/days
- Kobs x 10^3 ([1]; 2 mg/ml in 0.9% Sodium Chloride Injection, Glycine-HCl (I = 0.05) pH 3.0, 55°C): 84.8 1/days
- Kobs x 10^3 ([1]; 2 mg/ml in 0.9% Sodium Chloride Injection, HCl-KCl (I = 0.05) pH 1.5, 55°C): 343.2 1/days
- Kobs x 10^3 ([1]; 2 mg/ml in 5% Dextrose solution, Acetate (I = 0.05) pH 4.0, 55°C): 150.6 1/days
- Kobs x 10^3 ([1]; 2 mg/ml in 5% Dextrose solution, Acetate (I = 0.05) pH 5.0, 55°C): 225.7 1/days
- Kobs x 10^3 ([1]; 2 mg/ml in 5% Dextrose solution, Formate (I = 0.05) pH 3.5, 55°C): 89.1 1/days
- Kobs x 10^3 ([1]; 2 mg/ml in 5% Dextrose solution, Glycine-HCl (I = 0.05) pH 2.0, 55°C): 106.9 1/days
- Kobs x 10^3 ([1]; 2 mg/ml in 5% Dextrose solution, Glycine-HCl (I = 0.05) pH 2.5, 55°C): 81.1 1/days
- Kobs x 10^3 ([1]; 2 mg/ml in 5% Dextrose solution, Glycine-HCl (I = 0.05) pH 3.0, 55°C): 70.9 1/days
- Kobs x 10^3 ([1]; 2 mg/ml in 5% Dextrose solution, HCl-KCl (I = 0.05) pH 1.5, 55°C): 288.1 1/days
- Kobs x 10^3 ([1]; 2 mg/ml in Water for Injection, Acetate (I = 0.05) pH 4.0, 55°C): 376.7 1/days
- Kobs x 10^3 ([1]; 2 mg/ml in Water for Injection, Acetate (I = 0.05) pH 5.0, 55°C): 430.4 1/days
- Kobs x 10^3 ([1]; 2 mg/ml in Water for Injection, Fermate (I = 0.05) pH 3.5, 55°C): 125.4 1/days
- Kobs x 10^3 ([1]; 2 mg/ml in Water for Injection, Glycine-HCl (I = 0.05) pH 2.0, 55°C): 79.0 1/days
- Kobs x 10^3 ([1]; 2 mg/ml in Water for Injection, Glycine-HCl (I = 0.05) pH 2.5, 55°C): 55.1 1/days
- Kobs x 10^3 ([1]; 2 mg/ml in Water for Injection, Glycine-HCl (I = 0.05) pH 3.0, 55°C): 66.8 1/days
SMILES: COc1cccc2c1C(=O)c1c(O)c3c(c(O)c1C2=O)C[C@@](O)(C(=O)CO)C[C@@H]3O[C@H]1C[C@H](N)[C@@H](O)[C@H](C)O1 [epirubicin.HCl, 4'-epi-doxorubicin]

- K x 10^3 ([2]; 4°C): 0.019 1/days
- K x 10^3 ([2]; 8°C): 0.038 1/days
- K x 10^3 ([2]; 15°C): 0.130 1/days
- K x 10^3 ([2]; 27°C): 0.918 1/days
- t90% ([2]; 4°C): 5,652 days
- t90% ([2]; 8°C): 2,745 days
- t90% ([2]; 15°C): 810 days
- t90% ([2]; 27°C): 115 days
- Kobs x 10^3 ([2]; 27°C): 0.850 1/days
- Kobs x 10^3 ([2]; 35°C): 3.506 1/days
- Kobs x 10^3 ([2]; 45°C): 12.790 1/days
- Kobs x 10^3 ([2]; 55°C): 49.340 1/days
- % stability ([3]; pH 3.7, 8°C, 0 months): 100.0%
- Doxorubicin.HCl assay ([3]; pH 3.7, 8°C, 0 months): 2.064 mg/mL
- pH ([3]; pH 3.7, 8°C, 0 months): 3.7
- % stability ([3]; pH 3.7, 8°C, 1 month): 99.3%
- Doxorubicin.HCl assay ([3]; pH 3.7, 8°C, 1 month): 2.054 mg/mL
- pH ([3]; pH 3.7, 8°C, 1 month): 3.7
- % stability ([3]; pH 3.7, 8°C, 3 months): 100.0%
- Doxorubicin.HCl assay ([3]; pH 3.7, 8°C, 3 months): 2.063 mg/mL
- pH ([3]; pH 3.7, 8°C, 3 months): 3.6
- % stability ([3]; pH 3.7, 15°C, 0 months): 100.0%
- Doxorubicin.HCl assay ([3]; pH 3.7, 15°C, 0 months): 2.064 mg/mL
- pH ([3]; pH 3.7, 15°C, 0 months): 3.7
- % stability ([3]; pH 3.7, 15°C, 1 month): 100.5%
- Doxorubicin.HCl assay ([3]; pH 3.7, 15°C, 1 month): 2.073 mg/mL
- pH ([3]; pH 3.7, 15°C, 1 month): 3.7
- % stability ([3]; pH 3.7, 15°C, 3 months): 98.4%
- Doxorubicin.HCl assay ([3]; pH 3.7, 15°C, 3 months): 2.029 mg/mL
- pH ([3]; pH 3.7, 15°C, 3 months): 3.6
- % stability ([3]; pH 3.7, 27°C, 0 months): 100.0%
- Doxorubicin.HCl assay ([3]; pH 3.7, 27°C, 0 months): 2.064 mg/mL
- pH ([3]; pH 3.7, 27°C, 0 months): 3.7
- % stability ([3]; pH 3.7, 27°C, 1 month): 91.5%
- Doxorubicin.HCl assay ([3]; pH 3.7, 27°C, 1 month): 1.888 mg/mL
- pH ([3]; pH 3.7, 27°C, 1 month): 3.6
- % stability ([3]; pH 3.7, 27°C, 3 months): 74.9%
- pH ([3]; pH 3.7, 27°C, 3 months): 3.3
- K x 10^3 ([4]; 4°C): 0.017 1/days
- K x 10^3 ([4]; 8°C): 0.037 1/days
- K x 10^3 ([4]; 15°C): 0.137 1/days
- K x 10^3 ([4]; 27°C): 1.112 1/days
- t90% ([4]; 4°C): 6,166 days
- t90% ([4]; 8°C): 2,838 days
- t90% ([4]; 15°C): 768 days
- t90% ([4]; 27°C): 94 days
- Kobs x 10^3 ([4]; 35°C): 3.89 1/days
- Kobs x 10^3 ([4]; 45°C): 21.61 1/days
- Kobs x 10^3 ([4]; 55°C): 75.90 1/days
- Kobs x 10^3 ([4]; 60°C): 164.9 1/days
- t90% ([5]; 4°C): 3,218 days
- t90% ([5]; 8°C): 1,628 days
- t90% ([5]; 15°C): 516 days
- t90% ([5]; 27°C): 82 days
- Kobs x 10^3 ([5]; 35°C): 4.190 1/days
- Kobs x 10^3 ([5]; 45°C): 14.55 1/days
- Kobs x 10^3 ([5]; 55°C): 58.11 1/days
- Kobs x 10^3 ([5]; 60°C): 102.6 1/days
SMILES: COc1cccc2c1C(=O)c1c(O)c3c(c(O)c1C2=O)C[C@@](O)(C(=O)CO)C[C@@H]3O[C@H]1C[C@H](N)[C@H](O)[C@H](C)O1 [Doxorubicin·HCl, doxorubicin]
